Molecules are shown by their SMILES. Structures can show the parent of a compound that is named as a salt. A value given as a limit tells only on which side of the number the result lay.

What is called melting point is the temperature, or range, at which the solid turns liquid. What is called IC50 is the concentration at which inhibition is half-maximal.

For one series, the target named is T1, Human CCR3 (Homo sapiens, UniProt P51677).
T1 construct: The cloned CCR3 cDNA was constructed with pcDNA3 vector and transfected into a IC562 cell line; expressed in transfected cells
T1 sequence (P51677 1-355): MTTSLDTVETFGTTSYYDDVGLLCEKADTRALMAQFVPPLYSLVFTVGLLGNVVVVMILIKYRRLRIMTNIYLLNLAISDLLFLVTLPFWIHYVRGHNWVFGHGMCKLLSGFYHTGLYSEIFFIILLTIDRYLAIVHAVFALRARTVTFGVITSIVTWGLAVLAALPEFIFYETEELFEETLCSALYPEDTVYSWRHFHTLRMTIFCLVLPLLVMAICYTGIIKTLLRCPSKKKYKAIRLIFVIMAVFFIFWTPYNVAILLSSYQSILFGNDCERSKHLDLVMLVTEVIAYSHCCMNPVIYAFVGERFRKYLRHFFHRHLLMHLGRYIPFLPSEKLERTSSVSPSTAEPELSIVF
Nature of the series: Calcium mobilization assay, eotaxin-stimulated. The format is cell-based. The conditions noted are these: human CCR3-transformed K562 cells, 10 nM eotaxin; compounds of about 40 to 90% purity; read-out: Activity grade Ca2+ (IC50 class). The method, then: • Human CCR3-transformed K562 cells were used. The cloned CCR3 cDNA was constructed with pcDNA3 vector and transfected into a IC562 cell line. The human CCR3-transformed K562 cells were maintained in RPMI-1640 (Cat.#22400-089, Life Technologies) supplemented with 10% FCS (Cat.#A-1115-L, Hyclone), 55 μM 2-mercaptoethanol (Cat.#21985-023, Life Technologies), 1 mM sodium pyruvate (Cat.#11360-070, Life Technologies), 100 units/ml of penicillin G and 100 μg/ml of streptomycin (Cat.#15140-122, Life Technologies), and 0.4 mg/ml of Geneticin (Cat.#10131-035, Life Technologies)(hereinafter called “culture medium”). Before the receptor binding assay, cells were pretreated with 5 mM sodium butyrate (Cat.#193-01522, Wako)-containing the culture medium (2×10^5 cells/ml) for 20-24 hours to increase the expression of CCR3. (2) Receptor Binding Assay (RBA) • Butyrate-pretreated cells, suspended in binding buffer (25 mM HEPES pH 7.6, 1 mM CaCl2, 5 mM MgCl2, 0.5% BSA, 0.1% NaN3) at a cell density of 2×10^6 cells/ml, were added into 60 μl/well in the 96-well round bottom polypropylene plate (Cat.#3365, Costar). Compounds, diluted with the binding buffer (4-times higher concentration of the final concentration), were added into 30 μl/well in the polypropylene plate. [^125I]-labeled human eotaxin (Cat.#IM290, Amersham Pharmacia Biotech), diluted with the binding buffer at the concentration of 0.4 nM (final concentration; 0.1 nM), was added into 30 μl/well in the polypropylene plate. Total 120 μl/well of binding reaction mixture (60 μl/well of cell suspension, 30 μl/well of compound solution, and 30 μl/well of [^125I]-labeled eotaxin) were incubated in the polypropylene plate for 1 hour at room temperature after the incubation, 100 μl/well of the reaction mixture was transferred to a filtration plate (Cat.#MAFB-N0B, Millipore), and washed with the washing buffer (25 mM HEPES pH 7.6, 1 mM CaCl2, 5 mM MgCl2, 0.5% BSA, 0.1% NaN3, 0.5 M NaCl) twice. The 96-well filtration plate was pretreated with 100 μl/well of 0.5% polyethylenimine (Cat.#P-3143, Sigma) for 2-4 hours at room temperature and washed with the washing buffer twice before use. The non-specific binding was determined by parallel incubation in the presence of 500 nM of non-labeled eotaxin (Cat.#23209, Genzyme Techne). The radioactivities remained on the filter were measured by liquid scintillation counter (TopCount™, Packard) after an addition of 45 μl/well of scintillant (Microscint20, Cat.#6013621, Packard). The inhibition percent at each concentration of compound was calculated, and IC50 values were determined from the inhibition curve. [Determination of IC50 Values of Compounds in Calcium Mobilization Assay] (IC50 Ca2+) (1) Cell • Human CCR3-transformed K562 cells were used. The human CCR3-transformed K562 cells were maintained in RPMI-1640 supplemented with 10% FCS, 55 μM 2-mercaptoethanol (Cat.#21985-023, Life Technologies), 1 mM sodium pyruvate, 100 units/ml of penicillin G and 100 μg/ml of streptomycin and 0.4 mg/ml of Geneticin. Before the calcium mobilization assay, cells were pretreated with 5 mM sodium butyrate-containing the culture medium (2×10^5 cells/ml) for 20-24 hours to increase the expression of CCR3. (2) Calcium Mobilization Assay • Butyrate-pretreated cells were loaded with Fluo-3AM (Cat.#F-1242, Molecular Probes) in loading buffer (Hanks' solution Cat.#05906 Nissui, 20 mM HEPES pH 7.6, 0.1% BSA, 1 mM probenecid Cat.#P-8761 Sigma, 1 μM Fluo-3AM, 0.01% pluronic F-127 Cat.#P-6866 Molecular Probes) at a cell density of 1×10^7 cells/ml. Then, cells were washed with calcium assay buffer (Hanks' solution Cat.#05906 Nissui, 20 mM HEPES pH 7.6, 0.1% BSA, 1 mM Probenecid Cat.#P-8761 Sigma). The cell suspension (3.3×10^6 cells/ml) was added into 60 μl/well in the 96-well clear bottom black plate (Cat.#3904, Costar). Compounds, diluted (5-times concentration of the final concentration) with the calcium assay buffer, were added into 20 μl/well in the plate 10 minutes before assay. […]
On the technique in general: Calcium assays in cells follow changes in intracellular calcium, usually with a dye or a luminescent sensor.

With `N#Cc1ccc([S+]([O-])c2cc(Cl)cc(Cl)c2)c(S(=O)(=O)N2CCNCC2)c1` (centres unmarked) (as salt: hydrochloride) [Example 19-1, 4-[(3,5-dichlorophenyl)sulfinyl]-3-(1-piperazinylsulfonyl)benzonitrile hydrochloride], the melting point was 219 °C.

Compound `Cc1cc(C)cc(Oc2ccc(Cl)cc2S(=O)(=O)N2CCNCC2)c1` (as salt: hydrochloride) [Example 5-2, 1-{[5-chloro-2-(3,5-dimethylphenoxy)phenyl]sulfonyl}piperazine hydrochloride] returned a melting point of 202 to 204 °C.

As for `Cc1cc(C)cc(Oc2ccc(-c3nnn[nH]3)cc2S(=O)(=O)N2CCNCC2)c1` (as salt: hydrochloride) [Example 22-4, 1-{[2-(3,5-dimethylphenoxy)-5-(1H-tetraazol-5-yl)phenyl]sulfonyl}piperazine hydrochloride], the melting point was determined as 213 °C.

Regarding `Cc1cc(C)cc(Sc2ccc([N+](=O)[O-])cc2S(=O)(=O)N2CCNCC2)c1` (as salt: hydrochloride) [Example 2-1, 1-({2-[(3,5-dimethylphenyl)-sulfanyl]-5-nitrophenyl}sulfonyl)piperazine hydrochloride], the melting point lay within 225 to 227 °C.

As for `Cc1cc(C)cc(Oc2cc(Br)cc(S(=O)(=O)N3CCNCC3)c2)c1` (as salt: hydrochloride) [Example 24-1, 1-{[3-bromo-5-(3,5-dimethylphenoxy)phenyl]sulfonyl}piperazine hydrochloride], the melting point was > 84 °C (dec.).

`Cc1cc(C)cc(Oc2ccc([N+](=O)[O-])cc2S(=O)(=O)N2CCNCC2)c1.O=C(O)C(F)(F)F` [Example 1-3] yielded a melting point of 120 to 125 °C.

Regarding `CN(c1cc(Cl)cc(Cl)c1)c1ccc(C#N)cc1S(=O)(=O)N1CCNCC1` (as salt: hydrochloride) [Example 21-1, 4-[(3,5-dichlorophenyl)(methyl)amino]-3-(1-piperazinylsulfonyl)benzonitrile hydrochloride], the melting point was 163 °C.

With `Cc1cc(C)cc(Oc2ccc(C(=O)NCCC(N)=O)cc2S(=O)(=O)N2CCNCC2)c1` (as salt: hydrochloride) [Example 22-2, N-[4-(3,5-dimethylphenoxy)-3-(1-piperazinylsulfonyl)benzoyl]-beta-alanineamide hydrochloride], the melting point is 121 °C.

`Cl.N#Cc1ccc(Sc2cc(Cl)cc(Cl)c2)c(S(=O)(=O)N2CCCNCC2)c1` [Example 17-3] showed a melting point of 277 to 278 °C.

In turn, `O=[N+]([O-])c1ccc(Oc2cc(Cl)cc(Cl)c2)c(S(=O)(=O)N2CCC(N3CCCC3)CC2)c1` [Example 4-1, 1-{[2-(3,5-dichlorophenoxy)-5-nitrophenyl]sulfonyl}-4-(1-pyrrolidinyl)piperidine] returned a melting point of 217 to 218 °C.

Compound `Cc1cc(C)cc(Oc2ccc(-c3nnnn3CCC#N)cc2S(=O)(=O)N2CCNCC2)c1` (as salt: hydrochloride) [Example 22-3, 3-{5-[4-(3,5-dimethylphenoxy)-3-(1-piperazinylsulfonyl)phenyl]-1H-tetraazol-1-yl}propanenitrile hydrochloride] gave a melting point of 125 °C.

In turn, `Cc1cc(C)cc(Oc2ccc(CO)cc2S(=O)(=O)N2CCNCC2)c1` (as salt: hydrochloride) [Example 16-1, [4-(3,5-dimethylphenoxy)-3-(1-piperazinylsulfonyl)phenyl]methanol hydrochloride] had a melting point of 160 °C.

With `N#Cc1ccc(Oc2cc(Cl)cc(Cl)c2)c(S(=O)(=O)N2CCCNCC2)c1` (as salt: hydrochloride) [Example 12-1, 3-(1,4-diazepan-1-ylsulfonyl)-4-(3,5-dichlorophenoxy)benzonitrile hydrochloride], the melting point lay in the range of 278 to 280 °C.

For `N#Cc1ccc(S(=O)(=O)c2cc(Cl)cc(Cl)c2)c(S(=O)(=O)N2CCNCC2)c1` (as salt: hydrochloride) [Example 18-1, 4-[(3,5-dichlorophenyl)sulfonyl]-3-(1-piperazinylsulfonyl)benzonitrile hydrochloride], the melting point was 258 °C.

In turn, `Cc1cc(C)cc(Oc2ccc([N+](=O)[O-])cc2S(=O)(=O)N2CCNCC2)c1` (as salt: hydrochloride) [Example 1-2, 1-{[2-(3,5-dimethylphenoxy)-5-nitrophenyl]sulfonyl}piperazine hydrochloride] yielded a melting point of 264 to 266 °C.

Turning to `COC(=O)c1ccc(Oc2cc(C)cc(C)c2)c(S(=O)(=O)N2CCNCC2)c1` (as salt: hydrochloride) [Example 15-2, methyl 4-(3,5-dimethylphenoxy)-3-(1-piperazinylsulfonyl)benzoate hydrochloride], the melting point came to 120 °C.

As for `Cc1cc(C)cc(Oc2ccc(C(=O)NCCC#N)cc2S(=O)(=O)N2CCNCC2)c1` (as salt: hydrochloride) [Example 22-1, N-(2-cyanoethyl)-4-(3,5-dimethylphenoxy)-3-(1-piperazinylsulfonyl)benzamide hydrochloride], the melting point was determined as 101 °C.

Regarding `Cc1cc(C)cc(Oc2cc([N+](=O)[O-])ccc2S(=O)(=O)N2CCNCC2)c1` (as salt: hydrochloride) [Example 23-1, 1-{2-(3,5-dimethylphenoxy)-4-nitrophenylsulfonyl}piperazine hydrochloride], the melting point came to 284 °C.

For `COc1ccc(Oc2cc(C)cc(C)c2)c(S(=O)(=O)N2CCNCC2)c1` (as salt: hydrochloride) [Example 6-2], the melting point is 175 to 177 °C.

`N#Cc1ccc(Oc2cc(Cl)cc(Cl)c2)c(S(=O)(=O)N2CCC(N3CCCC3)CC2)c1` [Example 6-5] returned a melting point of 186 to 187 °C.

`Cc1cc(C)cc(Nc2ccc([N+](=O)[O-])cc2S(=O)(=O)N2CCNCC2)c1` (as salt: hydrochloride) [Example 3-1, N-(3,5-dimethyl-phenyl)-4-nitro-2-(1-piperazinylsulfonyl)aniline dihydrochloride] returned a melting point of 175 to 179 °C.

As to `Cc1cc(C)cc(Oc2ccc(C(=O)O)cc2S(=O)(=O)N2CCNCC2)c1` [Example 14-1, 4-(3,5-dimethylphenoxy)-3-(1-piperazinylsulfonyl)benzoic acid hydrochloride], the IC50 on Human CCR3 is below 1000 nM.

Regarding `O=[N+]([O-])c1ccc(Sc2ccccc2)c(S(=O)(=O)N2CCNCC2)c1` [Example 2-14], the IC50 at Human CCR3 was 1000 to 10000 nM.

The values above are taken from patent publication US8242118B2, “Arylsulfonamide derivatives for use as CCR3 antagonists in the treatment of inflammatory and immunological disorders” (Axikin Pharmaceuticals Inc., priority 2001, dated 2012).
